# Data from ChEMBL document CHEMBL4742398, “Heterocyclyl substituted pyrrolopyridines that are inhibitors of the cdk12 kinase” (2019).
# pIC50: −log10 of the molar value.
# System: not listed separately
# Test: Decrease in nuclear foci in human DM1 fibroblast for 24 hrs by fluorescent in situ hybridization assay
# Format: functional
row,SMILES,pIC50
1,CCC(=O)N1CCC[C@H]1C(=O)NCCc1cc2c(-c3cnn4ncccc34)ccnc2[nH]1,5.00
2,O=C(CCl)Nc1ccc(C(=O)N2CCC(c3cc4c(-c5cnn6ncccc56)ccnc4[nH]3)C2)cc1 (stereo not drawn),> 6.00
3,C=CC(=O)N1CCC[C@H]1C(=O)NCCc1cc2c(-c3cnn(C)c3)ccnc2[nH]1,5.00
4,c1cc(-c2ccc3cn[nH]c3c2)c2cc[nH]c2n1,5.00
5,CN(C)C/C=C/C(=O)N1CC[C@@H](OCC(=O)N2CCC(c3cc4c(-c5cnn6ncccc56)ccnc4[nH]3)C2)C1 (stereo partly drawn),6.00
6,C=CC(=O)N1CC(C(=O)NCCc2cc3c(-c4cnn5ncccc45)ccnc3[nH]2)C1,6.00
7,C=CC(=O)Nc1ccc(C(=O)N2CCN(Cc3cc4c(-c5cnn6ncccc56)ccnc4[nH]3)CC2)cc1,6.00
8,C=CC(=O)N1CCC[C@@H]1C(=O)NCCc1cc2c(-c3cnn4ncccc34)c(Cl)cnc2[nH]1,> 6.00
9,O=C(CCl)Nc1cccc(C(=O)N2CC[C@H](c3cc4c(-c5cnn6ncccc56)ccnc4[nH]3)C2)c1,> 6.00
10,C=C(C)C(=O)N1CCC[C@H]1C(=O)NCCc1cc2c(-c3cnn4ncccc34)ccnc2[nH]1,5.00
11,C=CC(=O)Nc1ccc(C(=O)N2CCC(c3cc4c(-c5cnn6ncccc56)ccnc4[nH]3)C2)cc1 (stereo not drawn),> 6.00
12,C=CC(=O)Nc1ccc(C(=O)NCc2cc3c(-c4cnn5ncccc45)ccnc3[nH]2)cc1,6.00
13,C[C@@H](Cl)C(=O)N1CCC[C@@H]1C(=O)N1CCC(c2cc3c(-c4cnn5ncccc45)ccnc3[nH]2)C1 (stereo partly drawn),6.00
14,CN(C)C/C=C/C(=O)N1CCC[C@@H](C(=O)N2CCC(c3cc4c(-c5cnn6ncccc56)ccnc4[nH]3)C2)C1 (stereo partly drawn),6.00
15,N#CN1CCC[C@H](C(=O)NCCc2cc3c(-c4cnn5ncccc45)ccnc3[nH]2)C1,6.00
16,Cc1cc2c(-c3cnn4ncccc34)ccnc2[nH]1,> 6.00
17,CC(C)(CCl)C(=O)N1CCC[C@H]1C(=O)NCCc1cc2c(-c3cnn4ncccc34)ccnc2[nH]1,5.00
18,C=CC(=O)Nc1cccc(C(=O)N2CCC(c3cc4c(-c5cnn6ncccc56)ccnc4[nH]3)C2)c1 (stereo not drawn),> 6.00
19,C=CC(=O)N1CCC[C@@H](C(=O)NCCc2cc3c(-c4cnn5ncccc45)ccnc3[nH]2)C1,6.00

row,SMILES,pIC50
1,COc1ccc2c(-c3ccnc4[nH]ccc34)cnn2n1,5.00
2,C=CC(=O)Nc1ccc(C(=O)NCCc2cc3c(-c4cnn5ncccc45)ccnc3[nH]2)cc1,> 6.00
3,OCc1cc2c(-c3cnn4ncccc34)ccnc2[nH]1,6.00
4,c1cnn2ncc(-c3ccnc4[nH]ccc34)c2c1,> 6.00
5,C=CC(=O)N1CCC[C@@H]1C(=O)NCCc1cc2c(-c3cnn4ncccc34)ccnc2[nH]1,> 6.00
6,O=C([C@H]1CCCN1C(=O)CCl)N1CCC(c2cc3c(-c4cnn5ncccc45)ccnc3[nH]2)C1 (stereo partly drawn),> 6.00
7,C=CC(=O)N1C[C@H](F)C[C@H]1C(=O)NCCc1cc2c(-c3cnn4ncccc34)ccnc2[nH]1,> 6.00
8,C=CC(=O)N1CCC[C@H]1C(=O)OCCc1cc2c(-c3cnn4ncccc34)ccnc2[nH]1,> 6.00
9,C=CC(=O)N1CC2(CC2)C[C@H]1C(=O)NCCc1cc2c(-c3cnn4ncccc34)ccnc2[nH]1,6.00
10,C=CC(=O)Nc1cccc(C(=O)N2CC[C@H](c3cc4c(-c5cnn6ncccc56)ccnc4[nH]3)C2)c1,> 6.00
11,CN(C)C/C=C/C(=O)N1CCC[C@H]1C(=O)NCCc1cc2c(-c3cnn4ncccc34)ccnc2[nH]1,5.00
12,C=CC(=O)Nc1cccc(C(=O)N2CCN(Cc3cc4c(-c5cnn6ncccc56)ccnc4[nH]3)CC2)c1,6.00
13,O=C(CCl)Nc1cccc(C(=O)N2CCC(c3cc4c(-c5cnn6ncccc56)ccnc4[nH]3)C2)c1 (stereo not drawn),> 6.00
14,C=CC(=O)N1CCCC[C@H]1C(=O)NCCc1cc2c(-c3cnn4ncccc34)ccnc2[nH]1,6.00
15,CN(C)C/C=C/C(=O)N1CCC(CC(=O)N2CCC(c3cc4c(-c5cnn6ncccc56)ccnc4[nH]3)C2)CC1 (stereo not drawn),5.00
16,O=C(CCl)Nc1cccc(C(=O)N2CC[C@@H](c3cc4c(-c5cnn6ncccc56)ccnc4[nH]3)C2)c1,> 6.00
17,C=CC(=O)NC(Cc1ccccc1)C(=O)NCCc1cc2c(-c3cnn4ncccc34)ccnc2[nH]1 (stereo not drawn),6.00
18,C=CC(=O)Nc1cccc(C(=O)NCCc2cc3c(-c4cnn5ncccc45)ccnc3[nH]2)c1,> 6.00
19,C=CC(=O)N1CCC[C@H]1C(=O)NCCc1cc2c(-c3cnn4ncccc34)ccnc2[nH]1,> 6.00

row,SMILES,pIC50
1,C=CC(=O)Nc1ccc(C(=O)N2CCC(c3cc4c(-c5c[nH]c6ccccc56)ccnc4[nH]3)C2)cc1 (stereo not drawn),6.00
2,C=CC(=O)N1CCOC[C@@H]1C(=O)NCCc1cc2c(-c3cnn4ncccc34)ccnc2[nH]1,> 6.00
3,CN(C)C/C=C/C(=O)Nc1ccc(C(=O)N2CCC(c3cc4c(-c5cnn6ncccc56)ccnc4[nH]3)C2)cc1 (stereo not drawn),> 6.00
4,NC(=O)c1cc2c(-c3cnn4ncccc34)ccnc2[nH]1,6.00
5,CN(C)C/C=C/C(=O)Nc1cccc(C(=O)NCCc2cc3c(-c4cnn5ncccc45)ccnc3[nH]2)c1,5.00
6,C/C=C/C(=O)N1CCC[C@H]1C(=O)NCCc1cc2c(-c3cnn4ncccc34)ccnc2[nH]1,6.00
7,CC#CC(=O)N1CCC[C@H]1C(=O)NCCc1cc2c(-c3cnn4ncccc34)ccnc2[nH]1,6.00
8,C#CC(=O)Nc1cccc(C(=O)N2CCC(c3cc4c(-c5cnn6ncccc56)ccnc4[nH]3)C2)c1 (stereo not drawn),> 6.00
9,C=CC(=O)N1CCC[C@H]1C(=O)N1CCN(Cc2cc3c(-c4cnn5ncccc45)ccnc3[nH]2)CC1,5.00
10,C=CC(=O)N1CCC[C@H](C(=O)NCCc2cc3c(-c4cnn5ncccc45)ccnc3[nH]2)C1,> 6.00
11,c1cc(-c2ccc3[nH]nnc3c2)c2cc[nH]c2n1,5.00
12,CNC(=O)c1cc2c(-c3cnn4ncccc34)ccnc2[nH]1,6.00
13,C=CC(=O)N1CCC[C@H](C(=O)NCCc2cc3c(-c4cnn5ncccc45)c(Cl)cnc3[nH]2)C1,6.00
14,C=CC(=O)Nc1cc(C(=O)N2CCC(c3cc4c(-c5cnn6ncccc56)ccnc4[nH]3)C2)ccc1OC (stereo not drawn),> 6.00
15,C=CC(=O)N1CCC[C@H]1C(=O)N1CC[C@@H](c2cc3c(-c4cnn5ncccc45)ccnc3[nH]2)C1,> 6.00
16,CC(C)=CC(=O)N1CCC[C@H]1C(=O)NCCc1cc2c(-c3cnn4ncccc34)ccnc2[nH]1,6.00
17,C=CC(=O)NC(C)C(=O)NCCc1cc2c(-c3cnn4ncccc34)ccnc2[nH]1 (stereo not drawn),6.00
18,c1ccc(Cc2cc3c(-c4cnn5ncccc45)ccnc3[nH]2)cc1,5.00
19,"C=CC(=O)N1CCC1C(=O)NCCc1cc2c(-c3cnn4ncccc34)ccnc2[nH]1 (single isomer, unassigned)",> 6.00

# Target: CDK12/Cyclin K (Homo sapiens, UniProt Q9NYV4)
# Sequence (O75909 whole entry): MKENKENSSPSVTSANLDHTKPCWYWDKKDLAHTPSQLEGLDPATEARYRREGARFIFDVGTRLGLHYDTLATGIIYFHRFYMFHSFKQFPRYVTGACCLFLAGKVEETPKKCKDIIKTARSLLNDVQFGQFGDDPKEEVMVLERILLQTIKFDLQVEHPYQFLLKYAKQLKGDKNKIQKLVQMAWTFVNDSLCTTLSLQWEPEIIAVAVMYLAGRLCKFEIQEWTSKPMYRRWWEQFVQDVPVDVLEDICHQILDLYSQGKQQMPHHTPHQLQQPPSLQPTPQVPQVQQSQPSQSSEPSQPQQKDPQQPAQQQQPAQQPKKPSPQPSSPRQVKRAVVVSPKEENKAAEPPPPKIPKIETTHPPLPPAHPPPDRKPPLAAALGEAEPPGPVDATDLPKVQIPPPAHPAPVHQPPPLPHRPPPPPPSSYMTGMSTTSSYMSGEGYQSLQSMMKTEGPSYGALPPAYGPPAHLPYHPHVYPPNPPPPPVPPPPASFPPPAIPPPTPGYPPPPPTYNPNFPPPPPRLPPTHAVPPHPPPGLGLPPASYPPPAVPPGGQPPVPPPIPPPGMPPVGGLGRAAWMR
# Sequence (Q9NYV4 whole entry): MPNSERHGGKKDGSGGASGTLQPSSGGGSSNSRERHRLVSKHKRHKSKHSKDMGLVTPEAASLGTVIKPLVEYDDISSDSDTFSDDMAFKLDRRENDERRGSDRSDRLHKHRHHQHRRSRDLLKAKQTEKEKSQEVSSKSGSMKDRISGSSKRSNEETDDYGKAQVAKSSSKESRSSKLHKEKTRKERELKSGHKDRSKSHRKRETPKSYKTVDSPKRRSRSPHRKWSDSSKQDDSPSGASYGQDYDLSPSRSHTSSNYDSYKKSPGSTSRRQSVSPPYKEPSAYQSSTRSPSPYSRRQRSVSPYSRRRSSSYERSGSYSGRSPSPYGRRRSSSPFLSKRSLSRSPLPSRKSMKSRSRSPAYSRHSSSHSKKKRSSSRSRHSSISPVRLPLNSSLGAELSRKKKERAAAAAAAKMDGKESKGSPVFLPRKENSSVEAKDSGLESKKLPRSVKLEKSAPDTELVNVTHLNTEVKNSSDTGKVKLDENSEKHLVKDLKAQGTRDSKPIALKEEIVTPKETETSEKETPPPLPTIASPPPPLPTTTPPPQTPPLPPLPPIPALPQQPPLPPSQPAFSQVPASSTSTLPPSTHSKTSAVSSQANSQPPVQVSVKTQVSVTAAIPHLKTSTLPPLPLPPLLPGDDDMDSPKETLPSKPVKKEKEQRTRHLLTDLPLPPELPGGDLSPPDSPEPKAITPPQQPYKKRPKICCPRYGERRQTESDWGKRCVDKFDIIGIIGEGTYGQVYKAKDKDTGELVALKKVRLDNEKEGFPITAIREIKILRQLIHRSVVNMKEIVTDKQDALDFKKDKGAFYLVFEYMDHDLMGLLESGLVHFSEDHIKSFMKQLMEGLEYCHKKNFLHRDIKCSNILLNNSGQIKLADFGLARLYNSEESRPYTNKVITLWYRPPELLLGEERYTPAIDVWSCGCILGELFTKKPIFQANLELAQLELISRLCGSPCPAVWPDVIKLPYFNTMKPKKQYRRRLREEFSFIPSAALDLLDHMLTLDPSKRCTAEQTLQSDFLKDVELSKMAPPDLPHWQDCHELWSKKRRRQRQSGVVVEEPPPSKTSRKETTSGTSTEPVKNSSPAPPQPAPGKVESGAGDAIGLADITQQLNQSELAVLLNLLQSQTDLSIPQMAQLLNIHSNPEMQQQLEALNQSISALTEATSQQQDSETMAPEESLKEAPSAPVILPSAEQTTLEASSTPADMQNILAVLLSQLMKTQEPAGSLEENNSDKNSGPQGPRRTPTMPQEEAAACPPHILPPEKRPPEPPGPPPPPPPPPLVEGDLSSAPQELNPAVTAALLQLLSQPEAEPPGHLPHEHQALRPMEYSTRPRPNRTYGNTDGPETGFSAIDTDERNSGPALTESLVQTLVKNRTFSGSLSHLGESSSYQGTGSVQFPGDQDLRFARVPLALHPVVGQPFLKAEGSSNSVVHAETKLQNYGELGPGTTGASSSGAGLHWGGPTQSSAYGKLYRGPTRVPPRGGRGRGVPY
# Test: Inhibition of CDK12/cyclinK (unknown origin) using RBER-IRStide as substrate and in presence of ATP preincubated for 30 mins followed by addition of substrate measured after 1 hr by ADP-Glo reagent assay
# Format: protein-complex assay
row,SMILES,pIC50
1,c1cnn2ncc(-c3ccnc4[nH]c(CN5CCNCC5)cc34)c2c1,≤ 6.00
